IC50 data for 28 compounds are collected here from patent US20250099448A1, “HETEROCYCLIC COMPOUNDS” (Hoffmann-La Roche Inc., priority 2022, published 2025).

By IC50 is commonly meant the midpoint of a concentration-inhibition curve. Higher therefore signals lower potency.

The target of the experiment is T1, MAGL protein (Homo sapiens, UniProt Q99685).
T1 sequence (Q99685 1-303): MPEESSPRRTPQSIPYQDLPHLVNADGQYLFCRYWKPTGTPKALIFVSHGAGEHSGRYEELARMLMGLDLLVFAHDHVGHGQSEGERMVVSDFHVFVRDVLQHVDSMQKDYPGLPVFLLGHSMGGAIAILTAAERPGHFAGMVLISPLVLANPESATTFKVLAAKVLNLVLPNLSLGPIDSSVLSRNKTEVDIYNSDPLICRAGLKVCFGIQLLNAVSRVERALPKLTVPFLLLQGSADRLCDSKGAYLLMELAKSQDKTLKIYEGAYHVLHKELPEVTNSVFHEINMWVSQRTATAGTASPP
Nature of the experiment: 2-AG assay: MAGL inhibitory activity by hydrolysis of 2-arachidonoylglycerol to arachidonic acid, followed by mass spectrometry. Type of experiment: biochemical. The note with it: 8 μM 2-arachidonoylglycerol, 15 min preincubation, 30 min reaction at RT, RapidFire MS readout. The method, then:
Compounds of formula (I) were profiled for MAGL inhibitory activity by determining the enzymatic activity by following the hydrolysis of the natural substrate 2-arachidonoylglycerol (2-AG) resulting in arachidonic acid, which can be followed by mass spectrometry. This assay is hereinafter abbreviated “2-AG assay”. The 2-AG assay was carried out in 384 well polypropylene assay plates. Compound dilutions were made in 100% DMSO in a polypropylene plate in 3-fold dilution steps to give a final concentration range in the assay from 12.5 μM to […]. Compound dilutions were added to MAGL protein in assay buffer (50 mM TRIS, 1 mM EDTA, 0.01% (v/v) Tween-20, 2.5% (v/v) DMSO). After shaking, the plate was incubated for 15 min at RT. To start the reaction, 2-arachidonoylglycerol in assay buffer was added. The final concentrations in the assay was […] for MAGL protein and 8 μM 2-arachidonoylglyerol. After shaking and 30 min incubation at RT, the reaction was quenched by the addition of two assay volumes of acetonitrile containing 4 μM of d8-arachidonic acid. The amount of arachidonic acid formed was traced by an online SPE system (Agilent Rapidfire) coupled to a triple quadrupole mass spectrometer. A C18 SPE cartridge (Agilent G9205A) was used in an acetonitrile/water liquid setup. The mass spectrometer was operated in negative electrospray mode following the mass transitions 303.1→259.1 for arachidonic acid and 311.1→267.0 for d8-arachidonic acid. The activity of the compounds was calculated based on the ratio of intensities [arachidonic acid/d8-arachidonic acid].
Regarding `N=S(=O)(c1cccc(CC2CC3(C2)CN(C(=O)N2CC4(CC(c5nnc(C6CC6)[nH]5)C4)C2)C3)c1)C(F)(F)F` (racemic) [compound 125], inhibition was half-maximal at 0.08 nM (IC50).
Then `N#Cc1cc(C(F)(F)F)ncc1OC1CCC2(C1)CN(C(=O)N1CC3(CC(c4nnc(C5CC5)[nH]4)C3)C1)C2` (racemic) [compound 154], with 3.5 nM; and `CS(=O)(=O)c1ccc(OC2CCC3(C2)CN(C(=O)N2CC4(CC(c5nnc(C6CC6)[nH]5)C4)C2)C3)cc1C(F)(F)F` (racemic) [compound 155], with 1.99 nM; and `O=C(N1CC(c2ccc([C@H]3C[C@H](C(F)F)C3)cc2)C1)N1CC2(CC(c3nnc(C4CC4)[nH]3)C2)C1` (single isomer, unassigned) [Example 304, Trans-[6-(5-Cyclopropyl-4H-1,2,4-triazol-3-yl)-2-azaspiro[3.3]heptan-2-yl]-[3-[4-[3-(difluoromethyl)cyclobutyl]phenyl]azetidin-1-yl]methanone], with 0.18 nM.
Compound `O=C(N1CC(c2ccc([C@H]3C[C@@H](C(F)F)C3)cc2)C1)N1CC2(CC(c3nnc(C4CC4)[nH]3)C2)C1` (single isomer, unassigned) [Example 305, cis-[6-(5-Cyclopropyl-4H-1,2,4-triazol-3-yl)-2-azaspiro[3.3]heptan-2-yl]-[3-[4-[3-(difluoromethyl)cyclobutyl]phenyl]azetidin-1-yl]methanone] returned a half-maximal inhibitory concentration (IC50) of 0.07 nM.
As to `O=C(N1CC(OCc2ccc(C(F)(F)F)cc2F)C1)N1CC2(CC(c3nnc([C@@H](O)C(F)(F)F)[nH]3)C2)C1` (single isomer, unassigned) [Example 388], the IC50 was 410 nM.
Turning to `O=C(N1CC(OCc2ccc(C(F)(F)F)cc2F)C1)N1CC2(CC(c3nnc([C@H](O)C(F)(F)F)[nH]3)C2)C1` (single isomer, unassigned) [Example 389], inhibition was half-maximal at 15.2 nM (IC50).
In the case of `N=[S@](=O)(c1cccc(CC2CC3(C2)CN(C(=O)N2CC4(CC(c5nnc(C6CC6)[nH]5)C4)C2)C3)c1)C(F)(F)F` (single isomer, unassigned) [compound 126], inhibition was half-maximal at 0.06 nM (IC50).
Then `N=[S@@](=O)(c1cccc(CC2CC3(C2)CN(C(=O)N2CC4(CC(c5nnc(C6CC6)[nH]5)C4)C2)C3)c1)C(F)(F)F` (single isomer, unassigned) [compound 127], with 0.06 nM; and `N=[S@@](=O)(c1ccc(CC2CC3(C2)CN(C(=O)N2CC4(CC(c5nnc(C6CC6)[nH]5)C4)C2)C3)cc1)C(F)(F)F` (single isomer, unassigned) [compound 128], with 0.16 nM.
Next, `N=[S@](=O)(c1ccc(CC2CC3(C2)CN(C(=O)N2CC4(CC(c5nnc(C6CC6)[nH]5)C4)C2)C3)cc1)C(F)(F)F` (single isomer, unassigned) [compound 129]: 0.1 nM; `O=C(N1CC2(CCC(Cc3ncc(F)cc3F)C2)C1)N1CC2(CC(c3nnc(C4CC4)[nH]3)C2)C1` (single isomer, unassigned) [compound 148]: 0.17 nM.
Next, `O=C(N1CC2(CCC(Cc3ncc(F)cc3F)C2)C1)N1CC2(CC(c3nnc(C4CC4)[nH]3)C2)C1` (single isomer, unassigned) [compound 149]: 0.39 nM.
`O=C(N1CC2(CCC(Cc3cnc(C(F)(F)F)cn3)C2)C1)N1CC2(CC(c3nnc(C4CC4)[nH]3)C2)C1` (single isomer, unassigned) [compound 150] showed an IC50 of 0.82 nM.
Next, `O=C(N1CC2(CCC(Cc3cnc(C(F)(F)F)cn3)C2)C1)N1CC2(CC(c3nnc(C4CC4)[nH]3)C2)C1` (single isomer, unassigned) [compound 151]: 0.51 nM; `O=C(N1CC(c2ccc(C3(C(F)(F)F)CC3)cc2)C1)N1CC2(CC(c3nnc([C@@H](O)C(F)(F)F)[nH]3)C2)C1` (single isomer, unassigned) [compound 229]: 33.9 nM; `O=C(N1CC(c2ccc(C3(C(F)(F)F)CC3)cc2)C1)N1CC2(CC(c3nnc([C@H](O)C(F)(F)F)[nH]3)C2)C1` (single isomer, unassigned) [compound 230]: 3.89 nM.
Then `O=C(N1CC(c2cnc(N3CC[C@@H](C(F)(F)F)C3)nc2)C1)N1CC2(CC(c3nc(C4CC4)n[nH]3)C2)C1` (single isomer, unassigned) [compound 265], with 4.38 nM; and `O=C(N1CC(c2cnc(N3CC[C@H](C(F)(F)F)C3)nc2)C1)N1CC2(CC(c3nc(C4CC4)n[nH]3)C2)C1` (single isomer, unassigned) [compound 266], with 2.93 nM.
With `O=C(N1CC(c2ccc(N3CCC(O)(C(F)(F)F)C3)nc2)C1)N1CC2(CC(c3nnc(C4CC4)[nH]3)C2)C1` (single isomer, unassigned) [compound 270], 4.93 nM corresponded to half-maximal inhibition (IC50). This IC50 lies about 1.7-fold higher than the previous one.
Then `O=C(N1CC(c2ccc(N3CCC(O)(C(F)(F)F)C3)nc2)C1)N1CC2(CC(c3nnc(C4CC4)[nH]3)C2)C1` (single isomer, unassigned) [compound 271], with 2.73 nM; and `O=C(N1CC(c2ccc(N3CCC(C(F)(F)F)CC3=O)cc2)C1)N1CC2(CC(c3nnc(C4CC4)[nH]3)C2)C1` (single isomer, unassigned) [compound 279], with 5.16 nM; and `O=C(N1CC(c2ccc(N3CCC(C(F)(F)F)CC3=O)cc2)C1)N1CC2(CC(c3nnc(C4CC4)[nH]3)C2)C1` (single isomer, unassigned) [compound 280], with 3.82 nM.
For the compound `N=[S@](=O)(c1ccc(CC2CC3(C2)CN(C(=O)N2CC4(CC(c5nnc(C6(N)CC6)[nH]5)C4)C2)C3)cc1)C(F)(F)F` (stereo in doubt) [Example 474, [6-[5-(1-aminocyclopropyl)-4H-1,2,4-triazol-3-yl]-2-azaspiro[3.3]heptan-2-yl]-[6-[[4-(trifluoromethyl-sulfonimidoyl)phenyl]methyl]-2-azaspiro[3.3]heptan-2-yl]methanone], the half-inhibitory concentration (IC50) came to 4.59 nM.
Then `O=C(N1CC(c2ccc(NC3(C(F)(F)F)CC3)nc2)C1)N1CC2(CC(c3nnc(C4CC4)[nH]3)C2)C1` [Example 1, [6-(5-cyclopropyl-4H-1,2,4-triazol-3-yl)-2-azaspiro[3.3]heptan-2-yl]-[3-[6-[[1-(trifluoromethyl)cyclopropyl]amino]-3-pyridyl]azetidin-1-yl]methanone], with 0.94 nM; and `O=C(N1CC2(CC(Cc3cnc(C(F)(F)F)cn3)C2)C1)N1CC2(CC(c3nnc(C4CC4)[nH]3)C2)C1` [Example 3], with 0.69 nM; and `O=C(N1CC2(CC(c3nnc(C4CCC4)[nH]3)C2)C1)N1CC2(CN(Cc3ccc(F)cc3F)C2)C1` [Example 158, [6-(5-cyclobutyl-4H-1,2,4-triazol-3 yl)-2-azaspiro[3.3]heptan-2-yl]-[6-[(2,4-difluorophenyl)methyl]-2,6-diazaspiro[3.3]heptan-2-yl]methanone], with 150 nM.
Then `COC(=O)c1ccccc1CN1CC2(C1)CN(C(=O)N1CC3(CC(c4nnc(C5CC5)[nH]4)C3)C1)C2` [Example 171, methyl 2-[[2-[6-(5-cyclopropyl-4H-1,2,4-triazol-3-yl)-2-azaspiro[3.3]heptane-2-carbonyl]-2,6-diazaspiro[3.3]heptan-6-yl]methyl]benzoate], with 9.21 nM.
